# From patent publication US20140113877A1, “NOVEL 3,4,4A,10B-TETRAHYDRO-1H-THIOPYRANO[4,3-C] ISOQUINOLINE COMPOUNDS” (Takeda GmbH, priority 2011, published 2014)
# Where two headings read alike, the source gives them in different places.
# Assays:
# [1] = target: T1, PDE4B1 (Homo sapiens, UniProt Q07343); test: Inhibition of PDE4B1 activity (SPA, [3H]cAMP); type: biochemical; settings: recombinant PDE4B1, 0.5 μM cAMP; binned: below 8 / between 8 and 9; read-out: PDE4B1 inhibitory values measured as −logIC50 (converted)
# T1 construct: made in house; host or cells: SF21 insect cells (baculovirus; virus prepared in SF9 cells)
# Procedure: The PDE4B1 (GB no. L20966) was a gift of Prof. M. Conti (Stanford University, USA). It was amplified from the original plasmid (pCMV5) via PCR with primers Rb18 (5′-[…]-3′) and Rb10 (5′-[…]-3′) and cloned into the pCR-Bac vector (Invitrogen, Groningen, NL).
# The recombinant baculovirus was prepared by means of homologous recombination in SF9 insect cells. The expression plasmids were cotransfected with Baculo-Gold DNA (Pharmingen, Hamburg) using a standard protocol (Pharmingen, Hamburg). Wt virus-free recombinant virus supernatants were selected using plaque assay methods. After that, high-titre virus supernatants were prepared by amplifying 3 times. PDE4B1 was expressed in SF21 cells by infecting 2×10^6 cells/ml with an MOI (multiplicity of infection) between 1 and 10 in the serum-free SF900 medium (GIBCO Life Technologies, Karlsruhe, Germany). The cells were cultured at 28° C. for 48-72 hours, after which they were pelleted for 5-10 min at 1000×g and 4° C.
# The SF21 insect cells were resuspended, at a concentration of approx. 10^7 cells/ml, in ice-cold (4° C.) homogenization buffer (20 mM Tris, pH 8.2, containing the following additions: 140 mM NaCl, 3.8 mM KCl, 1 mM EGTA, 1 mM MgCl2, 10 mM β-mercaptoethanol, 2 mM benzamidine, 0.4 mM Pefablock, 10 μM leupeptin, 10 μM pepstatin A, 5 μM trypsin inhibitor) and disrupted by ultrasonication. The homogenate was then centrifuged for 10 min at 1000×g and the supernatant was stored at −80° C. until subsequent use (see below). The protein content was determined by the Bradford method (BioRad, Munich) using BSA (Bovine serum albumin) as the standard.
# PDE4B1 activities were measured in a 96-well platform using SPA (scintillation proximity assay) yttrium silicate beads (RPNQ1050 from GE Healthcare). In a first step the PDE activity operated hydrolysis of either [^3H] cAMP (substrate) into [^3H] 5′AMP. In a second step substrate and product were distinguished following addition of SPA yttrium silicate beads. Indeed, in the presence of zinc sulphate the linear [^3H] […] Close proximity of bound [^3H] […] The test volume was 100 μl and finally contained 20 mM Tris buffer (pH 7.4), 0.1 mg/ml of BSA, 5 mM Mg^2+, 0.5 μM cAMP (including about 50,000 cpm of [3H]cAMP) as substrate, 1 μl of the respective substance dilution in DMSO and sufficient recombinant PDE (1000×g supernatant, see above) to ensure that 10-20% of the cAMP was converted under the said experimental conditions. […] After a preincubation of 5 min at 37° C., the reaction was commenced by adding the substrate (cAMP) and the assays were incubated for a further 15 min. Reactions were terminated by adding SPA beads (50 μl). In agreement with the manufacturer's instructions, the SPA beads had previously been resuspended in water, but were then diluted 1:3 (v/v) in water. This diluted solution further contained 3 mM IBMX (isobutylmethylxanthine) to ensure a complete block of PDE activity. Once the beads were sedimented (>30 min), the MTP's (microtiter plate) were analyzed in commercially available luminescence detection devices. The corresponding IC50 values of the compounds for inhibition of PDE4B1 activity were determined from the concentration-effect curves by means of non-linear regression.
# For the following compounds PDE4B1 inhibitory values [measured as −logIC50 (mol/l)] below 8 and between 8 and 9 have been determined. The numbers of the compounds correspond to the numbers of the examples.
# [2] = target: T2, human PDE5 (Homo sapiens, UniProt O76074); test: Inhibition of PDE5 activity (SPA, [3H]cGMP, platelet lysate); type: biochemical; settings: 0.5 μM cGMP, binned: below 8 / between 8 and 9, read-out: PDE5 inhibitory values measured as −logIC50 (converted)
# T2 construct: from tissue; host or cells: human platelets from fresh donor blood (platelet lysate)
# Procedure: As a source for human PDE5, platelets were used. For that purpose, 150 ml fresh blood from human donors anticoagulated with citrate [final concentration 0.3% (w/v)] was centrifuged at 200 g for 10 min to obtain the so-called platelet-rich-plasma (PRP) as a supernatant. 1/10 volume of ACD solution (85 mM Na3-citrate, 111 mM D-glucose, 71 mM citric acid, pH 4.4) was added to 9/10 volume of PRP. After centrifugation (1,400 g, 10 min) the cell pellet was resuspended in 3 ml homogenization buffer (NaCl 140 mM, KCl 3.8 mM, EGTA (ethylene glycol tetraacetic acid) 1 mM, MgCl2 1 mM, Tris-HCl 20 mM, beta-mercaptoethanol 1 mM, pH 8.2) plus protease-inhibitor mix resulting in final concentrations of 0.5 mM Pefablock (Roche), 10 μM Leupeptin, 5 μM Trypsine inhibitor, 2 mM Benzamidin and 10 μM Pepstatin A. The suspension was sonicated and thereafter centrifuged for 15 min at 10,000 g. The resulting supernatant (platelet lysate) was used for enzymatic assays.
# PDE5 activities were measured in a 96-well platform using SPA (scintillation proximity assay) yttrium silicate beads (RPNQ1050 from GE Healthcare). In a first step the PDE activity operated hydrolysis of either [^3H] cGMP (substrate) into [^3H] 5′GMP. In a second step substrate and product were distinguished following addition of SPA yttrium silicate beads. Indeed, in the presence of zinc sulphate the linear [^3H] […] Close proximity of bound [^3H] […] The test volume was 100 μl and contained 20 mM Tris buffer (pH 7.4), 0.1 mg of BSA (bovine serum albumin)/ml, 5 mM Mg^2+, 1 μM motapizone (PDE3 Inhibitor), 10 nM PDE2 inhibitor 2-(3,4-dimethoxybenzyl)-7-[(1R,2R)-2-hydroxy-1-(2-phenylethyl)propyl]-5-methylimidazo[5,1-f][1,2,4]triazin-4(3H)-one, 0.5 μM cGMP (cyclic guanosine monophosphate) (including about 50,000 cpm of [3H]cGMP as a tracer) (substrate), 1 μl of the respective compound dilution in dimethylsulfoxide (DMSO) and sufficient PDE5-containing platelet lysat (10,000×g supernatant, see above) to ensure that 10-20% of the cGMP was converted under the said experimental conditions. […] After a preincubation of 5 min at 37° C., the reaction was commenced by adding the substrate (cGMP) and the assay was incubated for a further 15 min. The reaction was terminated by adding SPA beads (50 μl). In agreement with the manufacturer's instructions, the SPA beads had previously been resuspended in water, but were then diluted 1:3 (v/v) in water. This diluted solution also contained 3 mM 8-methoxymethyl-3-isobutyl-1-methylxanthine (IBMX) to ensure a complete block of PDE activity. Once the beads were sedimented (>30 min), the MTP's were analyzed in commercially available luminescence detection devices. The corresponding IC50 values of the compounds for inhibition of PDE activity were determined from the concentration-effect curves by means of non-linear regression.
# For the following compounds PDE5 inhibitory values [measured as −logIC50 (mol/l)] below 8 and between 8 and 9 have been determined. The numbers of the compounds correspond to the numbers of the examples.
# [3] = test system: bleomycin-induced lung fibrotic remodeling; settings: mice, preventive and therapeutic protocols; cited from earlier work
# [4] = test system: bleomycin-induced lung fibrotic remodeling; settings: rat, preventive and therapeutic protocols; cited from earlier work
# [5] = test system: bleomycin-induced pulmonary fibrosis and pulmonary hypertension; settings: in vivo; cited from earlier work
# [6] = test system: pulmonary fibrosis; settings: patients with pulmonary fibrosis, open-label trials; cited from earlier work
# T1 sequence (Q07343 whole entry): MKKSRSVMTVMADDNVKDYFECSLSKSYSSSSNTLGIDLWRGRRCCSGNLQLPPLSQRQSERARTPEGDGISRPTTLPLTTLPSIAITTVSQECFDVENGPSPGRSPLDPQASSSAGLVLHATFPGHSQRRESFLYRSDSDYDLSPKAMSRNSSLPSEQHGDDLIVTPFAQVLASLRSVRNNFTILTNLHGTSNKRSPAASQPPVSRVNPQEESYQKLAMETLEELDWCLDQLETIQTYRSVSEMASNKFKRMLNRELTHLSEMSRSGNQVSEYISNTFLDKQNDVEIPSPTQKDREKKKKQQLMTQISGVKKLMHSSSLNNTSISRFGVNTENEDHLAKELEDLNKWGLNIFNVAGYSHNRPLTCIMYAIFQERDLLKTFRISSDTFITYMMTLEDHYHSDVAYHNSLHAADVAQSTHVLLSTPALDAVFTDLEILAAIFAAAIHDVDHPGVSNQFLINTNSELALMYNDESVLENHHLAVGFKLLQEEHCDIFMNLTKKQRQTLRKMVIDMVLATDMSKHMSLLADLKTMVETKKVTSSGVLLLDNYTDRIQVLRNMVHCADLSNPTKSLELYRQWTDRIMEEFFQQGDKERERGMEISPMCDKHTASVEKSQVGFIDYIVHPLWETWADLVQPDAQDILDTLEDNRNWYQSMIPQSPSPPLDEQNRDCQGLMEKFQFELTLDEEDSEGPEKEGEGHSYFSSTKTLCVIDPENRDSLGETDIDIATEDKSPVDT
IC50 [1],IC50 [2],SMILES,also measured
1 to 10 nM,1 to 10 nM,"CCOc1cc2c(cc1OC)C(c1ccc(C(=O)N3CCC(n4c(=O)c5sc(-c6ccccc6OC)cc5n(Cc5ccc(OC)c(F)c5)c4=O)CC3)cc1)=N[C@@H]1CCSC[C@H]21 [Example 19, 3-[1-({4-[(4aR,10bR)-9-ethoxy-8-methoxy-3,4,4a,10b-tetrahydro-1H-thiopyrano[4,3-c]isoquinolin-6-yl]phenyl}carbonyl)piperidin-4-yl]-1-(3-fluoro-4-methoxybenzyl)-6-(2-methoxyphenyl)thieno[3,2-d]pyrimidine-2,4(1H,3H)-dione]",–
> 10 nM,1 to 10 nM,"CCOc1cc2c(cc1OC)C(c1cccc(C(=O)N3CCC(n4c(=O)c5sc(-c6ccc7c(c6)OCO7)cc5n(Cc5ccc(OC)c(F)c5)c4=O)CC3)c1)=N[C@@H]1CCSC[C@H]21 [Example 20, 6-(1,3-benzodioxol-5-yl)-3-[1-({3-[(4aR,10bR)-9-ethoxy-8-methoxy-3,4,4a,10b-tetrahydro-1H-thiopyrano[4,3-c]isoquinolin-6-yl]phenyl}carbonyl)piperidin-4-yl]-1-(3-fluoro-4-methoxybenzyl)thieno[3,2-d]pyrimidine-2,4(1H,3H)-dione]",–
> 10 nM,1 to 10 nM,"CCOc1cc2c(cc1OC)C(c1cccc(C(=O)N3CCC(n4c(=O)c5sc(-c6ccccc6)cc5n(Cc5cc(F)c(OC)c(F)c5)c4=O)CC3)c1)=N[C@@H]1CCSC[C@H]21 [Example 21, 1-(3,5-difluoro-4-methoxybenzyl)-3-[1-({3-[(4aR,10bR)-9-ethoxy-8-methoxy-3,4,4a,10b-tetrahydro-1H-thiopyrano[4,3-c]isoquinolin-6-yl]phenyl}carbonyl)piperidin-4-yl]-6-phenylthieno[3,2-d]pyrimidine-2,4(1H,3H)-dione]",–
–,–,O=C(Nc1c(Cl)cncc1Cl)c1ccc(OC(F)F)c(OCC2CC2)c1 [roflumilast],effect on bleomycin-induced lung fibrotic remodeling [3]: alleviate bleomycin-induced lung fibrotic remodeling; effect on bleomycin-induced lung fibrotic remodeling [4]: alleviate bleomycin-induced lung fibrotic remodeling
–,–,CCCc1nn(C)c2c(=O)[nH]c(-c3cc(S(=O)(=O)N4CCN(C)CC4)ccc3OCC)nc12 [sildenafil],effect on bleomycin-induced pulmonary fibrosis and pulmonary hypertension [5]: attenuates bleomycin-induced pulmonary fibrosis and pulmonary hypertension; exercise tolerance [6]: increases exercise tolerance; lung hemodynamic parameters (vascular resistance and ventilation/perfusion matching) [6]: improves lung hemodynamic parameters
